Test results as given in ChEMBL document CHEMBL2074469, “Analysis of methotrexate and folate transport by multidrug resistance protein 4 (ABCC4): MRP4 is a component of the methotrexate efflux system” (Cancer Res, 2002).

Columns and labels:
Type in all cases: functional, cell membranes, Membrane vesicle
[1] = target: T1, MRP4 (ATP-binding cassette sub-family C member 4) (Homo sapiens, UniProt O15439); assay: TP_TRANSPORTER: inhibition of MTX uptake (MTX: 20 uM, Sildenafil: 10 uM) in membrane vesicles from MRP4-expressing Sf9 cells; design: scale not given: the % may be the effect or the level left; conditions: probe MTX (20 uM), read-out: Activity
T1 sequence (O15439 whole entry): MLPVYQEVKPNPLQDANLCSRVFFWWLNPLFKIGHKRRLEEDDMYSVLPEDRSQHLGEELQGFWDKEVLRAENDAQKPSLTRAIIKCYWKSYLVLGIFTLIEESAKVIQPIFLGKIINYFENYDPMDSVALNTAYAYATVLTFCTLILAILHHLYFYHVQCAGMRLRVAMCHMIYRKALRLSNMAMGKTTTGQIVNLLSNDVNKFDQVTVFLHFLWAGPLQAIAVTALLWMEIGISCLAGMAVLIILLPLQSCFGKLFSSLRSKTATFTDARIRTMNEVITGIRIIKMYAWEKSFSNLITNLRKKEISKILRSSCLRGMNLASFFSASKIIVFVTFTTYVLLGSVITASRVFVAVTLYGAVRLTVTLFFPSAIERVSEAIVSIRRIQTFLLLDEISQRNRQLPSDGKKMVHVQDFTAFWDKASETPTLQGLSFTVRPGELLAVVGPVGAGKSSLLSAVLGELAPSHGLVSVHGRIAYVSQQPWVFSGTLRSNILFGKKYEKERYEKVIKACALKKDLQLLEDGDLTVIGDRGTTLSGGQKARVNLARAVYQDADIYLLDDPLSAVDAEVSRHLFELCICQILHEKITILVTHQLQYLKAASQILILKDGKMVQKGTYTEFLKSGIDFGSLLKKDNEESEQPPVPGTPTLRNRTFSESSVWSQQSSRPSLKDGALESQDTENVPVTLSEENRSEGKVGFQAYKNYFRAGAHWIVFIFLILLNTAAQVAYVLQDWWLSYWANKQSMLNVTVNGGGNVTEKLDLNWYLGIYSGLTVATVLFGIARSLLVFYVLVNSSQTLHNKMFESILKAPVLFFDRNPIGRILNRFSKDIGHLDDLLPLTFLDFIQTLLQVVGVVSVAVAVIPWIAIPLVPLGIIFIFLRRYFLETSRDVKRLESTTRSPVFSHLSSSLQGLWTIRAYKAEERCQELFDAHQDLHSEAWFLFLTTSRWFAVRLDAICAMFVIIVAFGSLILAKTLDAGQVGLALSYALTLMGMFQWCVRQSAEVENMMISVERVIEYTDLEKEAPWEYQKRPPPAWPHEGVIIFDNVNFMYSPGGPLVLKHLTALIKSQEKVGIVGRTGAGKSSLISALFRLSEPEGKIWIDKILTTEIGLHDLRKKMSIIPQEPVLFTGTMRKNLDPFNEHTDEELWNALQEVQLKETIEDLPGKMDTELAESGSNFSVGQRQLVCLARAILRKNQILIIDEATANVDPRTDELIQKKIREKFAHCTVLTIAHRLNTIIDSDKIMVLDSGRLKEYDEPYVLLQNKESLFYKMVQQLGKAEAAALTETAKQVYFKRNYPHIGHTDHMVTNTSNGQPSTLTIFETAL

[2] = target: T1, MRP4 (ATP-binding cassette sub-family C member 4); assay: TP_TRANSPORTER: inhibition of MTX uptake (MTX: 20 uM, cGMP: 300 uM) in membrane vesicles from MRP4-expressing Sf9 cells; design: scale not given: the % may be the effect or the level left; conditions: probe MTX (20 uM), read-out: Activity
[3] = target: T1, MRP4 (ATP-binding cassette sub-family C member 4); assay: TP_TRANSPORTER: inhibition of MTX uptake (MTX: 20 uM, Verapamil: 30 uM) in membrane vesicles from MRP4-expressing Sf9 cells; design: scale not given: the % may be the effect or the level left; conditions: probe MTX (20 uM), read-out: Activity
[4] = target: T1, MRP4 (ATP-binding cassette sub-family C member 4); assay: TP_TRANSPORTER: inhibition of MTX uptake (MTX: 20 uM, E217betaG: 30 uM) in membrane vesicles from MRP4-expressing Sf9 cells; design: scale not given: the % may be the effect or the level left; conditions: probe MTX (20 uM), read-out: Activity
[5] = target: T1, MRP4 (ATP-binding cassette sub-family C member 4); assay: TP_TRANSPORTER: inhibition of MTX uptake (MTX: 20 uM, Folic acid: 300 uM) in membrane vesicles from MRP4-expressing Sf9 cells; design: scale not given: the % may be the effect or the level left; conditions: probe MTX (20 uM), read-out: Activity
[6] = target: T1, MRP4 (ATP-binding cassette sub-family C member 4); assay: TP_TRANSPORTER: inhibition of MTX uptake (MTX: 20 uM, Leucovorin: 300 uM) in membrane vesicles from MRP4-expressing Sf9 cells; design: scale not given: the % may be the effect or the level left; conditions: probe MTX (20 uM), read-out: Activity
[7] = target: T1, MRP4 (ATP-binding cassette sub-family C member 4); assay: TP_TRANSPORTER: inhibition of MTX uptake (MTX: 20 uM, MK571: 1 uM) in membrane vesicles from MRP4-expressing Sf9 cells; design: scale not given: the % may be the effect or the level left; conditions: probe MTX (20 uM), read-out: Activity
[8] = target: T1, MRP4 (ATP-binding cassette sub-family C member 4); assay: TP_TRANSPORTER: inhibition of MTX uptake (MTX: 20 uM, Probenecid: 300 uM) in membrane vesicles from MRP4-expressing Sf9 cells; design: scale not given: the % may be the effect or the level left; conditions: probe MTX (20 uM), read-out: Activity
[9] = target: T1, MRP4 (ATP-binding cassette sub-family C member 4); assay: TP_TRANSPORTER: inhibition of MTX uptake (MTX: 20 uM, Sulfinpyrazone: 300 uM) in membrane vesicles from MRP4-expressing Sf9 cells; design: scale not given: the % may be the effect or the level left; conditions: probe MTX (20 uM), read-out: Activity
[10] = target: T1, MRP4 (ATP-binding cassette sub-family C member 4); assay: TP_TRANSPORTER: inhibition of MTX uptake (MTX: 20 uM, Trequinsin: 10 uM) in membrane vesicles from MRP4-expressing Sf9 cells; design: scale not given: the % may be the effect or the level left; conditions: probe MTX (20 uM), read-out: Activity
[11] = target: T1, MRP4 (ATP-binding cassette sub-family C member 4); assay: TP_TRANSPORTER: inhibition of MTX uptake (MTX: 20 uM, PSC-833: 10 uM) in membrane vesicles from MRP4-expressing Sf9 cells; design: scale not given: the % may be the effect or the level left; conditions: probe MTX (20 uM), read-out: Activity
[12] = target: T1, MRP4 (ATP-binding cassette sub-family C member 4); assay: TP_TRANSPORTER: inhibition of MTX uptake (MTX: 20 uM, Zaprinast: 10 uM) in membrane vesicles from MRP4-expressing Sf9 cells; design: scale not given: the % may be the effect or the level left; conditions: probe MTX (20 uM), read-out: Activity
[13] = substrate: Nc1nc2ncc(CNc3ccc(C(=O)N[C@@H](CCC(=O)O)C(=O)O)cc3)nc2c(=O)[nH]1; assay: (§1) TP_TRANSPORTER: uptake in membrane vesicles from MRP4-expressing Sf9 cells
[14] = substrate: Nc1nc2c(c(=O)[nH]1)N(C=O)C(CNc1ccc(C(=O)N[C@@H](CCC(=O)O)C(=O)O)cc1)CN2; assay: as §1

## CCCc1nn(C)c2c(=O)[nH]c(-c3cc(S(=O)(=O)N4CCN(C)CC4)ccc3OCC)nc12
[1]
  activity at 10 µM: 46%

## Nc1nc2c(ncn2[C@@H]2O[C@@H]3COP(=O)(O)O[C@H]3[C@H]2O)c(=O)[nH]1
[2]
  activity at 300 µM: 46.5%

## COc1ccc(CCN(C)CCCC(C#N)(c2ccc(OC)c(OC)c2)C(C)C)cc1OC (centres undefined)
[3]
  activity at 30 µM: 53.8%

## C[C@]12CC[C@@H]3c4ccc(O)cc4CC[C@H]3[C@@H]1CC[C@@H]2O[C@@H]1O[C@H](C(=O)O)[C@@H](O)[C@H](O)[C@H]1O [ESTRADIOL 17B GLUCURONIDE]
[4]
  activity at 30 µM: 39.9%

## Nc1nc2ncc(CNc3ccc(C(=O)N[C@@H](CCC(=O)O)C(=O)O)cc3)nc2c(=O)[nH]1 [FOLIC ACID]
[5]
  activity at 300 µM: 45%

## Nc1nc2c(c(=O)[nH]1)N(C=O)C(CNc1ccc(C(=O)N[C@@H](CCC(=O)O)C(=O)O)cc1)CN2 (some centres undefined) [LEUCOVORIN]
[6]
  activity at 300 µM: 71.2%

## CN(C)C(=O)CCSC(SCCC(=O)O)c1cccc(/C=C/c2ccc3ccc(Cl)cc3n2)c1 (centres undefined) [MK-571]
[7]
  activity at 1 µM: 56.4%

## CCCN(CCC)S(=O)(=O)c1ccc(C(=O)O)cc1 [PROBENECID]
[8]
  activity at 300 µM: 49.4%

## O=C1C(CC[S+]([O-])c2ccccc2)C(=O)N(c2ccccc2)N1c1ccccc1 (centres undefined) [SULFINPYRAZONE]
[9]
  activity at 300 µM: 23.3%

## COc1cc2c(cc1OC)-c1c/c(=N\c3c(C)cc(C)cc3C)n(C)c(=O)n1CC2 [TREQUINSIN]
[10]
  activity at 10 µM: 25.7%

## C/C=C/C[C@@H](C)C(=O)[C@H]1C(=O)N[C@@H](C(C)C)C(=O)N(C)CC(=O)N(C)[C@@H](CC(C)C)C(=O)N[C@@H](C(C)C)C(=O)N(C)[C@@H](CC(C)C)C(=O)N[C@@H](C)C(=O)N[C@H](C)C(=O)N(C)[C@@H](CC(C)C)C(=O)N(C)[C@@H](CC(C)C)C(=O)N(C)[C@@H](C(C)C)C(=O)N1C [VALSPODAR]
[11]
  activity at 10 µM: 56.4%

## CCCOc1ccccc1-c1nc2nn[nH]c2c(=O)[nH]1 [ZAPRINAST]
[12]
  activity at 10 µM: 34.1%

B1: ATP-binding cassette sub-family C member 4 (Homo sapiens) (protein)
chain: T1 sequence (O15439 whole entry)
[13]
  Km: 170 µM
[14]
  Km: 640 µM
